For this data set, the system named is cat flea (Ctenocephalides felis). Put plainly: whole plant or invertebrate. The note with it: for mortality at 1.26 µg/cm2 / mortality at 1.26 µg/cm2, 1.26 µg/cm2: Ctenocephalides felis. It counts as in vivo. Here is the method:
b) Ctenocephalides felis Adulticide Assay: C. felis Single Dose Screen
Mortality of fleas was the primary endpoint in the assay. Fleas were considered dead if they didn't move or were on their sides and unable to walk or right themselves. […] The concentration chosen (1.26 μg/cm^2) was higher than that known to kill 90% of cat fleas (LC90) using the reference compound, permethrin.
The test species was the cat flea (Ctenocephalides felis). The strain used was obtained from external suppliers as pupae and held in the laboratory under testing conditions until the adults had emerged. Fifteen (15) fleas were used in a minimum of four replicates against a single concentration level (approximately 60 fleas). The insects were selected to be in the adult life stage, aged between 3 and 7 days post emergence.
The compounds to be tested were supplied as solids and were prepared in acetone as described below prior to testing. Samples were stored in a refrigerator (5±1° C.) unless otherwise specified.
During the mortality testing, the temperature was maintained at 25±1° C. Humidity was maintained at 75±5%. The base (area=159 mm^2) of a 100 mL glass Erlenmeyer (conical) flask provided the treatment surface. Flasks were pretreated with Coatasil™ glass treatment to maximise bio-availability of test compounds by preventing them from binding to glass the surface. The base of the 100 mL Erlenmeyer flask was treated with 0.5 mL of test sample in acetone and gently swirled. This volume was sufficient to cover the base of the flask. Flasks were left to dry for 24 hours before flea exposure.
Adult cat fleas were placed into a sorting chamber, which allowed fleas to jump into the Erlenmeyer flasks. Fifteen (15) adult cat fleas were collected in each flask. The top of the flasks were then covered in Parafilm™ and small holes were made to allow gas exchange. A 0.5 mL volume of acetone as a solvent control was applied to the base of an Erlenmeyer flask and the testing proceeded in the same manner described above. Cat fleas in the treatment containers were held under testing conditions for 8, 24 and/or 48 hours. Mortality was recorded at 8, 24, 8 and 24, or 24 and 48 hours. Pooled 8, 24, 8 and 24, and 24 and 48 hour mortality data were converted to percentages and are summarized by Tables 14, 14A and 14B, below.

Setting [1] is: 24 h, read-out: Ctenocephalides felis Mortality (%) 24 h.
Where [2] appears, read: 48 h, read-out: Ctenocephalides felis Mortality (%) 48 h.
Where [3] appears, read: 24 h, read-out: C. felis Mortality (%) 24 h, 24 h, Laboratory 1 A data.
[4] abbreviates: 8 h, read-out: Ctenocephalides felis Mortality (%) 8 h.
[5] abbreviates: 24 h, read-out: C. felis Mortality (%) 24 h, 24 h, Laboratory 2 B data.

The source of these data is patent publication US7312248B2, “Control of parasites in animals by the use of novel trifluoromethanesulfonanilide oxime ether derivatives” (Schering-Plough Animal Health Corporation, priority 2004, dated 2007).

The term mortality denotes the share of the test organisms that died.

Each structure is given as a SMILES string. Where two headings read alike, the source gives them in different places.

Take `C/C(=N\Oc1ccc(F)cc1)c1cc(Cl)ccc1N(C)S(=O)(=O)C(F)(F)F` [Compound 298]: the mortality at 1.26 µg/cm2 under setting [1] amounted to 1% and the mortality at 1.26 µg/cm2 under setting [2] was determined as 12%.
Taken in the same sequence, the figures for `CC/C(=N\OCC1CCCCC1)c1cc(Cl)ccc1N(C)S(=O)(=O)C(F)(F)F` [Compound 300] were 0% and 9%.
For the compound `CC/C(=N\Oc1ccc(F)c(Cl)c1)c1cc(Cl)ccc1NS(=O)(=O)C(F)(F)F` [Compound 146], under setting [3], the mortality at 1.26 µg/cm2, 1.26 µg/cm2 was found to be 11%.
Consider `CC/C(=N\OCC1CCCCC1)c1cc(Cl)ccc1N(C(C)=O)S(=O)(=O)C(F)(F)F` [Compound 311], for which the mortality at 1.26 µg/cm2 is 14% under setting [4] and 76% under setting [1].
Regarding `C/C(=N\Oc1ccc(C(F)(F)F)cc1)c1cc(Cl)ccc1NS(=O)(=O)C(F)(F)F` [Compound 143], under setting [3], the mortality at 1.26 µg/cm2, 1.26 µg/cm2 was found to be 7%.
The same measure, in the same setting: under `CO/N=C(\C)c1cc(Cl)ccc1NS(=O)(=O)C(F)(F)F` [Compound 35] stands 100%.
`C/C(=N\OCC(C)C)c1ccc(C(F)(F)F)cc1NS(=O)(=O)C(F)(F)F` [Compound 240]: the mortality at 1.26 µg/cm2, 1.26 µg/cm2 is 64% under setting [5] and 98% (48 h, read-out: C. felis Mortality (%) 48 h, 48 h, Laboratory 2 B data).
In the case of `CCO/N=C(\CC)c1cc(Cl)ccc1NS(=O)(=O)C(F)(F)F` [Compound 37], under setting [3], the mortality at 1.26 µg/cm2, 1.26 µg/cm2 was 29%.
Regarding `O=S(=O)(Nc1ccc(Cl)cc1/C(=N/Oc1ccc(F)cc1)C1CCCCC1)C(F)(F)F` [Compound 169, N-{4-chloro-2-[(4-fluorophenoxyimino)cyclohexylmethyl]phenyl}trifluoromethanesulfonamide], the mortality at 1.26 µg/cm2, 1.26 µg/cm2 under setting [3] is 9%.
Consider `O=S(=O)(Nc1ccc(Cl)cc1-c1cc(C2CCCCC2)on1)C(F)(F)F` [Compound 292], for which the mortality at 1.26 µg/cm2 under setting [4] stood at 15% and the mortality at 1.26 µg/cm2 under setting [1] turned out to be 92%.
On to `CC(C)(C)/C(=N\Oc1ccc(Cl)cc1)c1cc(Cl)ccc1NS(=O)(=O)C(F)(F)F` [Compound 182, N-{4-chloro-2-[1-(4-chlorophenoxyimino)2,2-dimethylpropyl]phenyl}trifluoromethanesulfonamide], for which, under setting [3], the mortality at 1.26 µg/cm2, 1.26 µg/cm2 came out at 28%.
For `CC/C(=N\OCC1CCCCC1)c1cc(Cl)ccc1N(COC(=O)C(C)(C)C)S(=O)(=O)C(F)(F)F` [Compound 304], the mortality at 1.26 µg/cm2 by setting is: under setting [1], 0%; under setting [2], 81%.
Take `CCOC(=O)N(c1ccc(Cl)cc1/C(CC)=N/OCC1CCCCC1)S(=O)(=O)C(F)(F)F` [Compound 313]: the mortality at 1.26 µg/cm2 was found to be 0% (8 h, single concentration 1.26 μg/cm^2 on treated glass, adult fleas, Laboratory 2 B data, read-out: Ctenocephalides felis Mortality (%) 8 h) and 59% (24 h, single concentration 1.26 μg/cm^2 on treated glass, adult fleas, Laboratory 2 B data, read-out: Ctenocephalides felis Mortality (%) 24 h).
Turning to `CO/N=C(\C)c1cccc(OC)c1NS(=O)(=O)C(F)(F)F` [Compound 40], the mortality at 1.26 µg/cm2, 1.26 µg/cm2 under setting [3] was 45%.
Still for that read-out and setting: the figure for `CSCO/N=C(\C)c1cc(Cl)ccc1NS(=O)(=O)C(F)(F)F` [Compound 124] is 100%.
On the same count and under the same terms, the figure for `O=S(=O)(Nc1ccc(Cl)cc1/C(=N/OC1CCCC1)c1ccccc1)C(F)(F)F` [Compound 162] is 14%.
Turning to `C/C(=N\OC(C)c1ccc(Cl)cc1Cl)c1cc(Cl)ccc1NS(=O)(=O)C(F)(F)F` (stereo not drawn) [Compound 258], the mortality at 1.26 µg/cm2, 1.26 µg/cm2 runs as follows: (8 h, read-out: C. felis Mortality (%) 8 h, 8 h, Laboratory 2 B data) 8%; under setting [5], 88%.
Consider `CCCO/N=C(\c1ccccc1)c1cc(Cl)ccc1NS(=O)(=O)C(F)(F)F` [Compound 252], for which, where the note is “24 h, Laboratory 2 B data”, the “C. felis Mortality (%) 24 h” value was 15^B %. Besides, the “C. felis Mortality (%) 48 h” value (48 h, Laboratory 2 B data) is listed as 100%.
`CCO/N=C(\c1ccccc1)c1ccccc1NS(=O)(=O)C(F)(F)F` [Compound 31]: the mortality at 1.26 µg/cm2, 1.26 µg/cm2 under setting [3] was determined as 74%.
Turning to `O=S(=O)(Nc1ccc(Cl)cc1/C(=N/OC1CCCCC1)c1ccccc1)C(F)(F)F` [Compound 179], under setting [3], the mortality at 1.26 µg/cm2, 1.26 µg/cm2 worked out at 12%.
In the case of `O=S(=O)(Nc1ccc(Cl)cc1/C(=N/OCC1CCCCC1)c1ccccc1)C(F)(F)F` [Compound 180], the mortality at 1.26 µg/cm2, 1.26 µg/cm2 under setting [3] worked out at 8%.
